Assay results from ChEMBL document CHEMBL5325468, “Scaffold hopping derived novel benzoxazepinone RIPK1 inhibitors as anti-necroptosis agents” (Bioorg Med Chem, 2023).
Calls of active or inactive are those of the source. The rule behind the calls is not given here.

Assays:
[1] = Cytotoxicity against human HT-29 cells assessed as reduction in cell viability; type: toxicity, cell-based
[2] = tested on: HT-29; experiment: Anti-necroptotic activity against TSZ induced necroptosis in human HT-29 cells preincubated for 12 hrs followed by TSZ addition by CellTiter-Glo luminescent cell viability assay; type: functional, cell-based
[3] = tested on: Mus musculus; experiment: Protection against mTNF-alpha induced SIRS in C57BL/6J mouse assessed as increase in survival rate at 20 mg/kg preincubated for 1 hr followed by mTNF-alpha addition measured upto 60 hrs; type: functional; conditions: time <= 61 hrs
[4] = species: Mus musculus; experiment: Protection against TNF-induced SIRS in C57BL/6J mouse assessed as reduction in body temperature loss preincubated for 1 hr followed by mTNF-alpha addition measured after 6 hrs […]; type: functional, organism-based; conditions: time 7.0 hrs
[5] = target: T1, Receptor-interacting serine/threonine-protein kinase 1 (Homo sapiens, UniProt Q13546); experiment: Binding affinity to RIPK1 (unknown origin)
T1 sequence (Q13546 whole entry): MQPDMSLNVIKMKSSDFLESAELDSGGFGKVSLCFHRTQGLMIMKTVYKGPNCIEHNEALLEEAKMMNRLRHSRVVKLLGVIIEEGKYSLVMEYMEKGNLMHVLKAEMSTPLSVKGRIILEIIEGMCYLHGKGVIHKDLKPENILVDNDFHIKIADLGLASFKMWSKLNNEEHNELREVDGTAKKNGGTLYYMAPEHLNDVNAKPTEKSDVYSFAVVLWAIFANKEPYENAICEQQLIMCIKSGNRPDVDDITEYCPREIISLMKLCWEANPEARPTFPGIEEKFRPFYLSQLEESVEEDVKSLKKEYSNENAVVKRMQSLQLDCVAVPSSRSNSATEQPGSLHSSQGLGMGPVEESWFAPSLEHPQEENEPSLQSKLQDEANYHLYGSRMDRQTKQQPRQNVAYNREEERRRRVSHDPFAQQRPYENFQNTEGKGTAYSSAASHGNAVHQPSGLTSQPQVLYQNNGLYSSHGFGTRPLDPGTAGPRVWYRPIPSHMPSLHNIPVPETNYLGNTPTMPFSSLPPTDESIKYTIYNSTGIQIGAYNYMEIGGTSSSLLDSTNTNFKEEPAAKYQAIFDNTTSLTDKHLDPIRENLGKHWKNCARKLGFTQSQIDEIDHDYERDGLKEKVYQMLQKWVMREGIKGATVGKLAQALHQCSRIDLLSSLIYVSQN

[6] = target: T2, Receptor-interacting serine/threonine-protein kinase 3 (Homo sapiens, UniProt Q9Y572); conditions: HT-29, dose 25-100 nM, time 6.0 hrs
Target sequence in this assay (Q9Y572 whole entry, looked up): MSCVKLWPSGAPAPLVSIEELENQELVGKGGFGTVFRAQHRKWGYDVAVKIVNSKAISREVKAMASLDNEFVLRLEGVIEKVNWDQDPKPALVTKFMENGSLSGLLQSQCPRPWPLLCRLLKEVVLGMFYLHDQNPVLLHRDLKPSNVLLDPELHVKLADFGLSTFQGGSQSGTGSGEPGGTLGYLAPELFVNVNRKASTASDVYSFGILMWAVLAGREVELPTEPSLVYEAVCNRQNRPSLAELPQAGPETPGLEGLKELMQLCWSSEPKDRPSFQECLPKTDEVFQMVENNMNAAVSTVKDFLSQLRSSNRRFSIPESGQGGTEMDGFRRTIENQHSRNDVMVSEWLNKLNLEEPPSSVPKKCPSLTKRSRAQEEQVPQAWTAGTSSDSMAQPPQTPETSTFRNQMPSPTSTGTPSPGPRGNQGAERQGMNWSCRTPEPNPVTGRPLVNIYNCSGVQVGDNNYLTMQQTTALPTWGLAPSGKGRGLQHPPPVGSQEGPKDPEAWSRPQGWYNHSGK

[7] = tested on: Mus musculus; experiment: Protection against mTNF-alpha induced SIRS in C57BL/6J mouse assessed as increase in survival rate at 5 mg/kg preincubated for 1 hr followed by mTNF-alpha addition measured upto 60 hrs; type: functional; conditions: time <= 61 hrs
[8] = tested on: HT-29; experiment: Inhibition of TSZ induced necrosomes formation in human HT-29 cells at 100 nM incubated for 6 hrs by Western blotting analysis; type: functional, cell-based
[9] = target: T2, Receptor-interacting serine/threonine-protein kinase 3; experiment: Binding affinity to RIPK3 (unknown origin)
Target sequence in this assay (Q9Y572 whole entry): as the sequence (Q9Y572 whole entry, looked up) above

[10] = tested on: Mus musculus; experiment: Protection against mTNF-alpha induced SIRS in C57BL/6J mouse assessed as increase in survival rate at 2.5 mg/kg preincubated for 1 hr followed by mTNF-alpha addition measured upto 60 hrs; type: functional; conditions: time <= 61 hrs
[11] = target: T3, Mixed lineage kinase domain-like protein (Homo sapiens) (UniProt Q8NB16); experiment: Inhibition of MLKL phosphorylation in TSZ induced human HT-29 cells at 100 nM incubated for 2 to 6 hrs by immunoblotting analysis; type: cell-based; conditions: time 2-6 hrs
T3 sequence (whole entry): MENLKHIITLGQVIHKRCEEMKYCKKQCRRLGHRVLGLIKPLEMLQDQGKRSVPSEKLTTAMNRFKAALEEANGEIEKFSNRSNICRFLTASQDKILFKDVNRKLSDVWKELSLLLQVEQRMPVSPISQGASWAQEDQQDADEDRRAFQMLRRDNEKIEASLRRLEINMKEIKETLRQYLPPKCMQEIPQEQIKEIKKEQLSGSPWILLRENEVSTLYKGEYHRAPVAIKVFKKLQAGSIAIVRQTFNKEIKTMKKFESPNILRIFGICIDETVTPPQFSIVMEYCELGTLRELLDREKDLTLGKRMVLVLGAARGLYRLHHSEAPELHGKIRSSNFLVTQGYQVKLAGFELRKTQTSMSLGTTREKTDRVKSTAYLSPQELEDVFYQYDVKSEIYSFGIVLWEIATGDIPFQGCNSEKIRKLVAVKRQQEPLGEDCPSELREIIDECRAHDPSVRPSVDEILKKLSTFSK

[12] = tested on: Mus musculus; experiment: Protection against mTNF-alpha induced SIRS in C57BL/6J mouse assessed as increase in survival rate at 10 mg/kg preincubated for 1 hr followed by mTNF-alpha addition measured upto 60 hrs; type: functional; conditions: time <= 61 hrs
[13] = target: T4, Receptor-interacting serine/threonine-protein kinase 1 (Homo sapiens) (UniProt Q13546); experiment: Inhibition of RIPK1 phosphorylation in TSZ induced human HT-29 cells incubated for 6 hrs by immunoblotting analysis; type: cell-based; conditions: dose 25-100 nM
T4 sequence (whole entry): T1 sequence (Q13546 whole entry)

[14] = target: T3, Mixed lineage kinase domain-like protein (Homo sapiens); experiment: Inhibition of MLKL phosphorylation in TSZ induced human HT-29 cells incubated for 6 hrs by immunoblotting analysis; type: cell-based; conditions: dose 25-100 nM
[15] = tested on: HT-29; experiment: Anti-necroptotic activity against TSZ induced necroptosis in human HT-29 cells incubated for 12 hrs; type: functional, cell-based
[16] = species: Homo sapiens; experiment: Selectivity ratio of Kd for RIPK3 (unknown origin) to Kd for RIPK1 (unknown origin)
[17] = tested on: U-937; experiment: Anti-necroptotic activity against TSZ induced necroptosis in human U-937 cells preincubated with compound followed by TSZ addition for 12 hrs; type: functional, cell-based
[18] = target: T2, Receptor-interacting serine/threonine-protein kinase 3; conditions: HT-29, dose 100.0 nM, time 2-6 hrs
Target sequence in this assay (Q9Y572 whole entry, looked up): as the sequence (Q9Y572 whole entry, looked up) above
Description: Inhibition of RIPK3 phosphorylation in TSZ induced human HT-29 cells at 100 nM incubated for 2 to 6 hrs by immunoblotting analysis

[19] = tested on: HT-29; experiment: Anti-necroptotic activity against TCZ induced necroptosis in human HT-29 cells incubated for 16 hrs; type: functional, cell-based
[20] = target: T4, Receptor-interacting serine/threonine-protein kinase 1 (Homo sapiens); experiment: Inhibition of RIPK1 phosphorylation in TSZ induced human HT-29 cells at 100 nM incubated for 2 to 6 hrs by immunoblotting analysis; type: cell-based; conditions: time 2-6 hrs

SMILES	CC50 [1]	EC50 [2]	further results
CN1C(=O)[C@@H](NC(=O)c2cc3cccc(-c4cccc5ccccc45)c3[nH]2)COc2ccccc21	> 100000 nM	956 nM	
CN1C(=O)[C@@H](NC(=O)c2cc3cccc(-c4ccc(-c5ccccc5)cc4)c3[nH]2)COc2ccccc21	> 100000 nM	438 nM	
CN1C(=O)[C@@H](NC(=O)c2n[nH]c(Cc3ccccc3)n2)COc2ccccc21 [GSK2982772]		4.1 nM	Activity [3]: 90%; Activity [4]: Active
CN1C(=O)[C@@H](NC(=O)c2cc3cccc(-c4cccc(F)c4)c3[nH]2)COc2ccccc21	> 100000 nM	96 nM	
COc1ccccc1-c1cccc2cc(C(=O)N[C@H]3COc4ccccc4N(C)C3=O)[nH]c12	> 100000 nM	775 nM	
CN1C(=O)[C@@H](NC(=O)c2cc3cccc(-c4ccccc4F)c3[nH]2)COc2ccccc21	> 100000 nM	32.3 nM	Kd [5]: 190 nM
Cc1cccc(-c2cccc3cc(C(=O)N[C@H]4COc5ccccc5N(C)C4=O)[nH]c23)c1	> 100000 nM	271 nM	
Cc1ccc(C)c(-c2cccc3cc(C(=O)N[C@H]4COc5ccccc5N(C)C4=O)[nH]c23)c1	> 100000 nM	2060 nM	
Cc1ccc(-c2cccc3cc(C(=O)N[C@H]4COc5ccccc5N(C)C4=O)[nH]c23)c(C)c1	> 100000 nM	4360 nM	
CN1C(=O)[C@@H](NC(=O)c2cc3cccc(-c4cccc(F)c4F)c3[nH]2)COc2ccccc21	> 100000 nM	145 nM	Kd [5]: 260 nM
COc1cccc(-c2cccc3cc(C(=O)N[C@H]4COc5ccccc5N(C)C4=O)[nH]c23)c1	> 100000 nM	128 nM	
CN1C(=O)[C@@H](NC(=O)c2cc3cccc(-c4ccc(F)cc4)c3[nH]2)COc2ccccc21	> 100000 nM	356 nM	
Cc1ccc(-c2cccc3cc(C(=O)N[C@H]4COc5ccccc5N(C)C4=O)[nH]c23)cc1	> 100000 nM	1250 nM	
CN1C(=O)[C@@H](NC(=O)c2cc3cccc(-c4c(F)cccc4F)c3[nH]2)COc2ccccc21	> 100000 nM	2170 nM	
CN1C(=O)[C@@H](NC(=O)c2cc3cccc(-c4ccc(F)c(F)c4)c3[nH]2)COc2ccccc21	> 100000 nM	128 nM	
CN1C(=O)[C@@H](NC(=O)c2cc3cccc(-c4cccc(-c5ccccc5)c4)c3[nH]2)COc2ccccc21	> 100000 nM	> 10000 nM	
COc1ccc(-c2cccc3cc(C(=O)N[C@H]4COc5ccccc5N(C)C4=O)[nH]c23)cc1	> 100000 nM	3800 nM	
CN1C(=O)[C@@H](NC(=O)c2cc3cccc(-c4cc(F)ccc4F)c3[nH]2)COc2ccccc21	> 100000 nM	88.5 nM	Kd [5]: 190 nM
Cc1cccc(-c2cccc3cc(C(=O)N[C@H]4COc5ccccc5N(C)C4=O)[nH]c23)c1C	> 100000 nM	302 nM	
CN1C(=O)[C@@H](NC(=O)c2cc3cccc(-c4ccccc4C(F)(F)F)c3[nH]2)COc2ccccc21	> 100000 nM	163 nM	
CN1C(=O)[C@@H](NC(=O)c2cc3cccc(-c4ccccc4)c3[nH]2)COc2ccccc21	> 100000 nM	16.2 nM	Kd [5]: 190 nM; inhibition [6]: Dose-Dependent Effect; Activity [7]: 100%; inhibition [8]: Active; Kd [9]: 2400 nM; Activity [4]: Active; Activity [10]: 75%; inhibition [11]: Active; Activity [12]: 100%; inhibition [13]: Dose-Dependent Effect; inhibition [14]: Dose-Dependent Effect; Activity [15]: Dose-Dependent Effect; Selectivity ratio [16]: 8; Activity [17]: Dose-Dependent Effect; inhibition [18]: Active; Activity [19]: Active; inhibition [20]: Active
Cc1ccc(-c2cccc3cc(C(=O)N[C@H]4COc5ccccc5N(C)C4=O)[nH]c23)cc1C	> 100000 nM	1660 nM	
CN1C(=O)[C@@H](NC(=O)c2nnc(Cc3ccccc3)[nH]2)COc2ccccc21 [GSK2982772]	> 50000 nM		
CN1C(=O)[C@@H](NC(=O)c2cc3cccc(-c4ccc(C(F)(F)F)cc4)c3[nH]2)COc2ccccc21	> 100000 nM	3850 nM	
CN1C(=O)[C@@H](NC(=O)c2cc3cccc(-c4cccc(C(F)(F)F)c4)c3[nH]2)COc2ccccc21	> 100000 nM	2060 nM	
CN1C(=O)[C@@H](NC(=O)c2cc3cccc(-c4ccc(F)cc4F)c3[nH]2)COc2ccccc21	> 100000 nM	392 nM	Kd [5]: 200 nM
Cc1cccc(C)c1-c1cccc2cc(C(=O)N[C@H]3COc4ccccc4N(C)C3=O)[nH]c12	> 100000 nM	1480 nM	
CN1C(=O)[C@@H](NC(=O)c2cc3cccc(-c4ccc5ccccc5c4)c3[nH]2)COc2ccccc21	> 100000 nM	18100 nM	
CN1C(=O)[C@@H](NC(=O)c2cc3cccc(-c4ccccc4-c4ccccc4)c3[nH]2)COc2ccccc21	> 100000 nM	> 10000 nM	
Cc1ccccc1-c1cccc2cc(C(=O)N[C@H]3COc4ccccc4N(C)C3=O)[nH]c12	> 100000 nM	45.4 nM	Kd [5]: 270 nM
